Numbers after ± are expanded uncertainties.
Test: mn = molality of the nth substance listed, in mol/kg
Conditions: 298.15 K, 101 kPa, Liquid

## NCC(=O)O [2-aminoacetic acid] + O
m1 = 0.0988
  mass density: 1000.19 ± 0.48 kg/m3
m1 = 0.1509
  mass density: 1001.82 ± 0.49 kg/m3
m1 = 0.2033
  mass density: 1003.44 ± 0.49 kg/m3
m1 = 0.2463
  mass density: 1004.78 ± 0.49 kg/m3
m1 = 0.2996
  mass density: 1006.4 ± 0.5 kg/m3
m1 = 0.3513
  mass density: 1007.96 ± 0.5 kg/m3
m1 = 0.4037
  mass density: 1009.55 ± 0.51 kg/m3
m1 = 0.4497
  mass density: 1010.94 ± 0.51 kg/m3

## NC(CO)C(=O)O (stereo not drawn) [(.+-.)-serine] + O
m1 = 0.02628
  mass density: 998.22 ± 0.49 kg/m3
m1 = 0.04948
  mass density: 999.26 ± 0.48 kg/m3
m1 = 0.07419
  mass density: 1000.35 ± 0.48 kg/m3
m1 = 0.1008
  mass density: 1001.52 ± 0.49 kg/m3
m1 = 0.1252
  mass density: 1002.6 ± 0.49 kg/m3
m1 = 0.1509
  mass density: 1003.72 ± 0.49 kg/m3
m1 = 0.1753
  mass density: 1004.76 ± 0.5 kg/m3
m1 = 0.2009
  mass density: 1005.86 ± 0.5 kg/m3

## C[C@H](N)C(=O)O [(S)-2-aminopropanoic acid] + O
m1 = 0.1065
  mass density: 1000.07 ± 0.48 kg/m3
m1 = 0.1518
  mass density: 1001.34 ± 0.48 kg/m3
m1 = 0.2006
  mass density: 1002.71 ± 0.49 kg/m3
m1 = 0.2568
  mass density: 1004.27 ± 0.49 kg/m3
m1 = 0.3059
  mass density: 1005.52 ± 0.5 kg/m3
m1 = 0.359
  mass density: 1007.03 ± 0.5 kg/m3
m1 = 0.4066
  mass density: 1008.35 ± 0.5 kg/m3
m1 = 0.4555
  mass density: 1009.54 ± 0.51 kg/m3

## C[C@@H](O)[C@H](N)C(=O)O [DL-threonine] + O
m1 = 0.0246
  mass density: 998.08 ± 0.49 kg/m3
m1 = 0.0494
  mass density: 999.12 ± 0.48 kg/m3
m1 = 0.07575
  mass density: 1000.22 ± 0.48 kg/m3
m1 = 0.1002
  mass density: 1001.23 ± 0.48 kg/m3
m1 = 0.1256
  mass density: 1002.28 ± 0.49 kg/m3
m1 = 0.1499
  mass density: 1003.28 ± 0.49 kg/m3
m1 = 0.1751
  mass density: 1004.31 ± 0.49 kg/m3
m1 = 0.2001
  mass density: 1005.33 ± 0.5 kg/m3

## N[C@@H](Cc1c[nH]cn1)C(=O)O [L-histidine] + O
m1 = 0.02223
  mass density: 998.29 ± 0.49 kg/m3
m1 = 0.04995
  mass density: 999.84 ± 0.48 kg/m3
m1 = 0.07431
  mass density: 1001.19 ± 0.49 kg/m3
m1 = 0.099
  mass density: 1002.56 ± 0.49 kg/m3
m1 = 0.1232
  mass density: 1003.87 ± 0.49 kg/m3
m1 = 0.1428
  mass density: 1004.92 ± 0.5 kg/m3
m1 = 0.1834
  mass density: 1007.13 ± 0.5 kg/m3
m1 = 0.2013
  mass density: 1008.08 ± 0.51 kg/m3

## NCC(=O)NCC(=O)O [glycylglycine] + O
m1 = 0.02426
  mass density: 998.39 ± 0.49 kg/m3
m1 = 0.05026
  mass density: 999.84 ± 0.48 kg/m3
m1 = 0.07538
  mass density: 1001.22 ± 0.49 kg/m3
m1 = 0.0999
  mass density: 1002.54 ± 0.49 kg/m3
m1 = 0.1253
  mass density: 1003.95 ± 0.49 kg/m3
m1 = 0.1482
  mass density: 1005.2 ± 0.5 kg/m3
m1 = 0.1746
  mass density: 1006.63 ± 0.5 kg/m3
m1 = 0.1974
  mass density: 1007.84 ± 0.51 kg/m3

Source: the NIST ThermoML archive (doi:10.1016/j.jct.2005.03.015)
